From US8524740B2, “Synthesis and anticancer activity of aryl and heteroaryl-quinolin derivatives” (Tairx, Inc., priority 2010, dated 2013) come the findings set out here.

Usually IC50 stands for the concentration that inhibits the measured activity by half. A low value points to greater potency in that assay. Broadly, the melting point is the temperature of the solid-liquid transition.

Series [1] has as its system H460. Description: MTT assay, H460 cells. The series is classed as cell-based. The conditions noted are these: Homo sapiens, NCI-H460. The method, then:
(§1) MTT (3-(4,5-Dimethylthiazol-2-yl)-2,5-diphenyltetrazolium bromide) assays.^21,22 HL-60, HCT-116, Hep 3B, H460, Detroit 551 and HT29/FuR cells were treated with tested compounds for the indicated periods. After treatment, cells were washed once with PBS and incubated with MTT (Sigma, St. Louis, Mo., USA) for 2 h. The formazan precipitate was dissolved in 150 μL of DMSO, and the absorbance was measured with an ELISA reader at 570 nm.
(§2) HL-60, Hep 3B, H460, MES-SA, MES-SAID x5 and Detroit 551 cells were treated with vehicle or test compounds for 48 h. The cell growth rate was determined by MTT (3-(4,5-dimethyl-thiazol-2-yl)-2,5-diphenyltetrazoliun bromide) reduction assay.
(§3) MTT (3-(4,5-Dimethylthiazol-2-yl)-2,5-diphenyltetrazolium bromide) assays. HL-60, Hep 3B, H460, A498, Colo205 and Detroit 551 cells were treated with tested compounds for the indicated periods. After treatment, cells were washed once with PBS and incubated with MTT (Sigma, St. Louis, Mo., USA) for 2 h. The formazan precipitate was dissolved in 150 μL of DMSO, and the absorbance was measured with an ELISA reader at 570 nm.
Background: Tetrazolium assays rely on reduction of a dye to a coloured formazan, in cell work by metabolically active cells.

Series [2] relates to HL-60. In words: MTT assay, HL-60 cells. The format is cell-based. Conditions: Homo sapiens. As to the method: as §1, §2
(§4) MTT (3-(4,5-Dimethylthiazol-2-yl)-2,5-diphenyltetrazolium bromide) assays. HL-60, HCT-116, A549, Hep 3B, KB, Kb-VIN and DU145 cells were treated with tested compounds for the indicated periods. After treatment, cells were washed once with PBS and incubated with MTT (Sigma, St. Louis, Mo., USA) for 2 h. The formazan precipitate was dissolved in 150 μL of DMSO, and the absorbance was measured with an ELISA reader at 570 nm.
as §3

For series [3], the system named is Detroit 551. Description: MTT assay, Detroit 551 normal human cells. Conditions: Detroit 551. The format is cell-based. The method, then: as §1, §2, §3
Series [4] concerns Hep3B. In words: MTT assay, Hep 3B cells. The conditions noted are these: Homo sapiens. The series is classed as cell-based. As to the method:
as §1, §2, §4, §3

Series [5] relates to HT29/5FuR. In words: MTT assay, HT29/5FuR cells. The format is cell-based. Conditions: Homo sapiens, HT-29, Table 1, 48 h. The method, then: as §1
Series [6] concerns HL-60, HCT-116, Hep3B, H-460. Description: Cytotoxicity screen (MTT) against human cancer cell lines, results in words. The series is classed as cell-based. The conditions noted are these: comparison within sub-series or with CHM-2133. As to the method: as §1, §2
In series [7] the test system is HCT116. Description: MTT assay, HCT-116 cells. The conditions noted are these: Homo sapiens, Table 1, 48 h. The format is cell-based. As to the method:
as §1, §4

The mark [8] stands for this setting: Homo sapiens, Table 2, B-1 series, 48 hrs.
[9] abbreviates: Table 1, 48 h, MTT, normal human cell.
Where [10] appears, read: Homo sapiens, Table 3, B-2 series, 48 hrs.
The mark [11] stands for this setting: Homo sapiens, Table 4, B-3 series, 48 hrs.

As to `COc1ccc(O)cc1C1=Nc2ccc(N3CCOCC3)cc2C(=O)C1` [Compound 143a, 2-(5-hydroxy-2-methoxyphenyl)-6-morpholinoquinolin-4-one], the IC50 was 84.8 µM in series [1] (Table 2, B-1 series, 48 hrs); 93.8 µM in series [2] (Table 2, B-1 series, 48 hrs); greater than 100 µM in series [3] (setting [8]); greater than 100 µM in series [4] (Table 2, B-1 series, 48 hrs).
`O=C1CC(c2cccc(OCc3ccccc3)c2)=Nc2ccc(N3CCOCC3)cc21` [Compound 116, 2-(3-Benzyloxyphenyl)-6-morpholinoquinolin-4-one]: the melting point lay within 283 to 285 °C.
Still for that read-out and setting: then `O=C1CC(c2cccc(OCc3ccccc3)c2)=Nc2ccc(N3CCCC3)cc21` [Compound 117, 2-(3-Benzyloxyphenyl)-6-pyrrolidinoquinolin-4-one], with 320 to 322 °C; and `COc1cc(OCc2ccccc2)cc(C2=Nc3cc4c(cc3C(=O)C2)OCO4)c1` [Compound 165, 2-(3-Benzyloxy-5-methoxyphenyl)-6,7-methylenedioxyquinolin-4-one], with 235 to 238 °C.
The compound `O=C1CC(c2ccc(O)cc2)=Nc2ccc(N3CCOCC3)cc21` [Compound 140, 2-(4-Hydroxyphenyl)-6-morpholinoquinolin-4-one] yielded a melting point of 340 to 342 °C. The same compound had an IC50 in series [1] (Table 2, B-1 series, 48 hrs) greater than 10 µM. Also, it took 1.64 µM to reach half-maximal inhibition in series [2] (Table 2, B-1 series, 48 hrs) (IC50). Also, in series [4] (Table 2, B-1 series, 48 hrs), the half-inhibitory concentration (IC50) was greater than 10 µM.
The compound `O=C1CC(c2ccc(OCc3ccccc3)cc2)=Nc2ccc(N3CCCC3)cc21` [Compound 120, 2-(4-Benzyloxyphenyl)-6-pyrrolidinoquinolin-4-one] displayed a melting point of 330 to 332 °C.
The same measure, in the same setting: then `COc1cc(C2=Nc3ccc(N4CCCC4)cc3C(=O)C2)ccc1OCc1ccccc1` [Compound 123, 2-(4-(Benzyloxy)-3-methoxyphenyl)-6-pyrrolidinoquinolin-4-one], with 304 to 306 °C.
`COc1ccc(C2=Nc3ccc(N4CCOCC4)cc3C(=O)C2)cc1` [Compound 132, 2-(4-Methoxyphenyl)-6-morpholinoquinolin-4-one] came in with a melting point of 302 to 304 °C. The compound also gave an IC50 in series [1] (Table 2, B-1 series, 48 hrs) greater than 2.5 µM. The IC50 in series [2] (Table 2, B-1 series, 48 hrs) was greater than 2.5 µM. Moreover, in series [3] (setting [8]), the 50% inhibitory concentration (IC50) was greater than 2.5 µM. The concentration for half-maximal inhibition (IC50) in series [4] (Table 2, B-1 series, 48 hrs) is greater than 2.5 µM.
In the case of `COc1ccc2c(c1O)C(=O)CC(c1ccc(F)cc1)=N2` [Compound 39, 2-(4-Fluorophenyl)-5-hydroxy-6-methoxyquinolin-4-one], the IC50 in series [1] (Table 1, 48 h, MTT) was 8.8 µM; in series [2] (Table 1, 48 h, MTT) it was 1.8 µM; in series [5] it was 0.33 µM; in series [3] (setting [9]), greater than 25 µM; in series [4] (Table 1, 48 h, MTT), 11 µM; in series [7] it was 2.4 µM. Moreover, in series [6], the “cytotoxicity (in words)” value is recorded as “weaker”.
For the compound `COc1cc2c(cc1OCc1ccccc1)N=C(c1cccc(F)c1)CC2=O` [Compound 23, 7-Benzyloxy-2-(3-fluorophenyl)-6-methoxyquinolin-4-one], the melting point was in the range of 154 to 155 °C.
With `COc1ccc2c(c1OC)C(=O)CC(c1ccccc1F)=N2` [Compound 16, 2-(2-Fluorophenyl)-5,6-dimethoxyquinolin-4-one], the 50% inhibitory concentration (IC50) in series [1] (Table 1, 48 h, MTT) is greater than 20 µM; in series [2] (Table 1, 48 h, MTT), 3.7 µM; in series [5], 2.03 µM; in series [3] (setting [9]), greater than 20 µM; in series [4] (Table 1, 48 h, MTT), greater than 20 µM; in series [7] it was greater than 20 µM.
Turning to `O=C1CC(c2ccc(O)cc2)=Nc2ccc(N3CCCC3)cc21` [Compound 141, 2-(4-Hydroxyphenyl)-6-pyrrolidinoquinolin-4-one], the melting point was 304 to 306 °C. The compound further yielded a half-inhibitory concentration (IC50) in series [1] (Table 3, B-2 series, 48 hrs) of 1.56 µM. This compound also yielded an IC50 in series [2] (Table 3, B-2 series, 48 hrs) of 0.04 µM. For the same compound, the half-inhibitory concentration (IC50) in series [3] (setting [10]) is greater than 25 µM. The compound further registered an IC50 in series [4] (Table 3, B-2 series, 48 hrs) of 1.1 µM.
In the same order, the values of `COc1ccc(C2=Nc3ccc(N4CCCC4)cc3C(=O)C2)cc1` [Compound 133, 2-(4-Methoxyphenyl)-6-pyrrolidinoquinolin-4-one] are 312 to 313 °C, greater than 1 µM, greater than 1 µM, greater than 1 µM and greater than 1 µM.
In the case of `O=C1CC(c2cccc(F)c2)=Nc2ccc(O)c(O)c21` [Compound 41, 2-(3-Fluorophenyl)-5,6-dihydroxyquinolin-4-one], the IC50 in series [1] (Table 1, 48 h, MTT) was 6.1 µM; in series [2] (Table 1, 48 h, MTT), 0.3 µM; in series [5], 0.53 µM; in series [3] (setting [9]) it was greater than 100 µM; in series [4] (Table 1, 48 h, MTT), 6.9 µM; in series [7], 8.2 µM. In addition, in series [6], the “cytotoxicity (in words)” value is “greater cytotoxicity”.
Compound `CN(C)c1ccc2c(c1)C(=O)CC(c1ccccc1OCc1ccccc1)=N2` [Compound 115, 2-(2-Benzyloxyphenyl)-6-dimethylaminoquinolin-4-one] registered a melting point of 210 to 212 °C.
On the same count and under the same terms, then `CN(C)c1ccc2c(c1)C(=O)CC(c1cccc(OCc3ccccc3)c1)=N2` [Compound 118, 2-(3-Benzyloxyphenyl)-6-dimethylaminoquinolin-4-one], with 307 to 308 °C.
As for `COc1ccc(O)cc1C1=Nc2ccc(N3CCCC3)cc2C(=O)C1` [Compound 143b, 2-(5-hydroxy-2-methoxyphenyl)-6-pyrrolidinoquinolin-4-one], the half-maximal inhibitory concentration (IC50) in series [1] (Table 2, B-1 series, 48 hrs) is greater than 100 µM; in series [2] (Table 2, B-1 series, 48 hrs), 56.2 µM; in series [3] (setting [8]), greater than 100 µM; in series [4] (Table 2, B-1 series, 48 hrs), 59.3 µM.
As to `O=C1CC(c2ccc(F)cc2)=Nc2ccc(O)c(O)c21` [Compound 42, 2-(4-Fluorophenyl)-5,6-dihydroxyquinolin-4-one], the IC50 in series [1] (Table 1, 48 h, MTT) was 100 µM; in series [2] (Table 1, 48 h, MTT), 38.6 µM; in series [3] (setting [9]), greater than 100 µM; in series [4] (Table 1, 48 h, MTT), 100 µM; in series [7] it was greater than 100 µM. For the same compound, in series [6], the “cytotoxicity (in words)” value was “weaker”.
The compound `CN(C)c1ccc2c(c1)C(=O)CC(c1ccc(O)cc1)=N2` [Compound 142, 2-(4-Hydroxyphenyl)-6-dimethylaminoquinolin-4-one] had a melting point of 321 to 323 °C. The IC50 in series [1] (Table 4, B-3 series, 48 hrs) worked out at 0.56 µM. In series [2] (Table 4, B-3 series, 48 hrs), this compound came in with a half-inhibitory concentration (IC50) of 0.64 µM. The compound also showed an IC50 in series [3] (setting [11]) of 75 µM. Besides, in series [4] (Table 4, B-3 series, 48 hrs), it took 9 µM to reach half-maximal inhibition (IC50).
Take `COc1cc(C2=Nc3ccc(N4CCOCC4)cc3C(=O)C2)ccc1O` [Compound 143, 2-(4-Hydroxy-3-methoxyphenyl)-6-morpholinoquinolin-4-one]: the melting point is 297 to 299 °C. The compound further registered an IC50 in series [1] (Table 2, B-1 series, 48 hrs) of 50 µM. This compound also came in with an IC50 in series [2] (Table 2, B-1 series, 48 hrs) of 3.9 µM. In series [3] (setting [8]), this compound showed a concentration for half-maximal inhibition (IC50) of 50 µM. For the same compound, 50 µM corresponded to half-maximal inhibition in series [4] (Table 2, B-1 series, 48 hrs) (IC50).
Compound `O=C1CC(c2ccccc2OCc2ccccc2)=Nc2ccc(N3CCCC3)cc21` [Compound 114, 2-(2-Benzyloxyphenyl)-6-pyrrolidinoquinolin-4-one] had a melting point of 293 to 295 °C.
The same measure, in the same setting: then `CN(C)c1ccc2c(c1)C(=O)CC(c1ccc(OCc3ccccc3)cc1)=N2` [Compound 121, 2-(4-Benzyloxyphenyl)-6-dimethylaminoquinolin-4-one], with 283 to 285 °C; and `O=C1CC(c2ccc(OCc3ccccc3)cc2)=Nc2ccc(N3CCOCC3)cc21` [Compound 119, 2-(4-Benzyloxyphenyl)-6-morpholinoquinolin-4-one], with 320 to 323 °C.
For the compound `COc1cc2c(cc1OCc1ccccc1)N=C(c1ccccc1F)CC2=O` [Compound 22, 7-Benzyloxy-2-(2-fluorophenyl)-6-methoxyquinolin-4-one], the melting point was 132 to 134 °C.
For `COc1cc(C2=Nc3ccc(N4CCCC4)cc3C(=O)C2)ccc1O` [Compound 144, 2-(4-Hydroxy-3-methoxyphenyl)-6-pyrrolidinoquinolin-4-one], the melting point was in the range of 310 to 312 °C. In series [1] (Table 3, B-2 series, 48 hrs), this compound came in with a 50% inhibitory concentration (IC50) of 0.56 µM. For the same compound, the concentration for half-maximal inhibition (IC50) in series [2] (Table 3, B-2 series, 48 hrs) was 0.038 µM. Further, the IC50 in series [3] (setting [10]) is greater than 2.5 µM. In addition, in series [4] (Table 3, B-2 series, 48 hrs), inhibition was half-maximal at 0.38 µM (IC50).
On to `CN(C)c1ccc2c(c1)C(=O)CC(c1ccccc1O)=N2` [Compound 136, 2-(2-Hydroxyphenyl)-6-dimethylaminoquinolin-4-one], for which the melting point is 296 to 298 °C. The compound also registered an IC50 in series [1] (Table 4, B-3 series, 48 hrs) of 5.4 µM. This compound came in with an IC50 in series [2] (Table 4, B-3 series, 48 hrs) of 3.02 µM. Inhibition in series [3] (setting [11]) was half-maximal at 100 µM (IC50). In addition, the half-maximal inhibitory concentration (IC50) in series [4] (Table 4, B-3 series, 48 hrs) was determined as 7.1 µM.
In the case of `COc1cc2c(cc1OCc1ccccc1)N=C(c1ccc(F)cc1)CC2=O` [Compound 24, 7-Benzyloxy-2-(4-fluorophenyl)-6-methoxyquinolin-4-one], the melting point was in the range of 248 to 249 °C.
